Results: ChEMBL document CHEMBL1133166, “Cyclin-dependent kinase inhibitors: useful targets in cell cycle regulation” (J Med Chem, 2000)
Active and inactive are the calls of the source. The calls are words filed in the database; no cut-off is given here.

Assays:
[1] = target: Cyclin-dependent kinase 2/cyclin E (Homo sapiens) (UniProt P24864+P24941+O96020); conditions: Asteroidea
Description: Inhibition of Cyclin-dependent kinase 2-cyclin E

[2] = target: Cyclin-dependent kinase 1/cyclin B (Homo sapiens) (UniProt P06493+P14635+Q8WWL7+O95067); conditions: Asteroidea
Description: Inhibition of Cyclin-dependent kinase 1-cyclin B

[3] = target: T1, Cyclin-dependent kinase 4/cyclin D (Homo sapiens) (UniProt P11802+P24385+P30281+P30279); test: Inhibition of Cyclin-dependent kinase 4-cyclin D; assay type: protein-complex assay
T1 sequence (P11802 whole entry, looked up): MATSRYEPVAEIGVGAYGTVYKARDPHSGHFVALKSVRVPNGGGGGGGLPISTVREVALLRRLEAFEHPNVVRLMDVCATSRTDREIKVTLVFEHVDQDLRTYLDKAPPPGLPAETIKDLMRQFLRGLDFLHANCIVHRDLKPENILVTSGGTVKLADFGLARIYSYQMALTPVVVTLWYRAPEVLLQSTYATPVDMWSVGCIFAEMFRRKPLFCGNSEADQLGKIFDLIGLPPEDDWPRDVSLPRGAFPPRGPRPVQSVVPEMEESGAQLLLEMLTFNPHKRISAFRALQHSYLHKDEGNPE
T1 sequence (P24385 whole entry, looked up): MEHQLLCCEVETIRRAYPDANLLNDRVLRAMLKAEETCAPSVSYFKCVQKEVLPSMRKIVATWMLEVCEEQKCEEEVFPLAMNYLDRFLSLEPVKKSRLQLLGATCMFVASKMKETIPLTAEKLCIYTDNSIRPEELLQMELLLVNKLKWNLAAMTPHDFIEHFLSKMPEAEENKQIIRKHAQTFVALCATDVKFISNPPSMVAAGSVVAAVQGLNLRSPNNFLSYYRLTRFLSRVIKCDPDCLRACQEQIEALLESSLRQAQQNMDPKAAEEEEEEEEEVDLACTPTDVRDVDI
T1 sequence (P30279 whole entry, looked up): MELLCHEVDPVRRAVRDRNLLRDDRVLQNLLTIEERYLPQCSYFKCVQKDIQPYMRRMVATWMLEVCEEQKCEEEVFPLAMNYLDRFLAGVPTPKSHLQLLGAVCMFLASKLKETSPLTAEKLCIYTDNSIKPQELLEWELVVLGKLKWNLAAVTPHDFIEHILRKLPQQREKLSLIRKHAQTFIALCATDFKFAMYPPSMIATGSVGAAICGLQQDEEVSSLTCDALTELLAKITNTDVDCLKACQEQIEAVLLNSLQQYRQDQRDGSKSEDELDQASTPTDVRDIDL
T1 sequence (P30281 whole entry, looked up): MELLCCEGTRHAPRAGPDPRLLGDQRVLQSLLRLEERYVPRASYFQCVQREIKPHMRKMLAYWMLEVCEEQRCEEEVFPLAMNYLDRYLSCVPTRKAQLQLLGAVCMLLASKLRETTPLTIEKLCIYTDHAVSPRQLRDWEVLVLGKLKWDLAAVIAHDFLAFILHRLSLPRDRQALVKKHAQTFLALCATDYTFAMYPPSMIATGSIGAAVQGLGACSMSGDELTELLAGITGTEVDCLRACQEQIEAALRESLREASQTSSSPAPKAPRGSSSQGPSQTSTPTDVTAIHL

[4] = target: Cyclin-dependent kinase 2/cyclin A (Homo sapiens) (UniProt P24941+P20248+P78396); test: Inhibition of Cyclin-dependent kinase 2-cyclin A; assay type: protein-complex assay
[5] = target: T1, Cyclin-dependent kinase 4/cyclin D (Homo sapiens); test: Inhibition of Cyclin-dependent kinase 4-cyclin D (Inactive); assay type: protein-complex assay; conditions: Asteroidea

Structure (SMILES) | ID50 [1] | ID50 [2] | ID50 [4] | further results
CCn1cnc2c(N)nc(N(c3cccc(Cl)c3)[C@@H]3CCCC[C@@H]3N)nc21 | 9 nM | 16 nM |  | ID50 [3]: 29 nM
CN1CC[C@H](c2c(O)cc(O)c3c(=O)cc(-c4ccccc4Cl)oc23)[C@H](O)C1 |  |  | 100 nM | 
Cn1cnc2c(NCc3ccccc3)nc(NCCO)nc21 |  |  |  | IA [5]: inactive
CC(C)[C@H](CO)Nc1nc(Nc2ccc(C(=O)O)c(Cl)c2)c2ncn(C(C)C)c2n1 |  |  | 6 nM | 

Further lines, with some results ahead:

ID50 [1] | ID50 [2] | ID50 [4] | Structure (SMILES) | further results
6.2 nM |  |  | CNS(=O)(=O)Cc1ccc(/N=N/c2c(O)[nH]c3ccc4ncccc4c23)cc1 | 
 | 35 nM |  | O=C1Cc2c([nH]c3ccc(Br)cc23)-c2ccccc2N1 | 
270 nM | 675 nM | 58 nM | CC(C)n1c(=O)ccc2ncc(Nc3ccc(N4CCN(C)CC4)cc3)cc21 | ID50 [3]: 45 nM
3.5 nM |  |  | CNS(=O)(=O)c1ccc(/N=N/c2c(O)[nH]c3ccc4ncsc4c23)cc1 | 
50 nM | 20 nM |  | OCCCNc1cc(-c2ccnc(Nc3cccc(Cl)c3)n2)ccn1 | 
